This is an account of results in patent US4710500A, “1-(4'-fluorophenyl)-3,5-substituted indoles useful in the treatment of psychic disorders and pharmaceutical compositions thereof” (H. Lundbeck A/S, priority 1985, dated 1987).

Read-outs that look alike come from different tables or passages of the source.

The nature of series [1]: pharmacological testing (general statements). As to conditions: result in words. The protocol:
The compounds of Formula I were tested according to reliable and well recognized pharmacological tests as follows: […]

Series [2] has as its system methylphenidate-induced gnawing. The series can be described thus: Methylphenidate antagonism. It is filed as in vivo, mice. As to conditions: for ED50: Mus musculus.
In series [3] the target is T1, 5-HT2 receptor (Rattus norvegicus, UniProt P14842).
T1 construct: from tissue; host or cells: living rats (in vivo), CNS
The series can be described thus: Quipazine inhibition (head twitches). As to conditions: sc 2 hours before quipazine 15 umol/kg sc. It is filed as in vivo. Here is the method: Quipazine and a number of other compounds, which increase 5-HT2 receptor activity in the CNS, induce a characteristic rapid shake (twitch) of the head. This response is inhibited by 5-HT2 receptor antagonists (Vetulani et al. 1980, Arnt et al. 1984).
The test compound or saline is injected subcutaneously 2 hours before subcutaneous injection of quipazine hemimalecate (15umol/kg). At least 3 dose groups, each consisting of at least 4 rats, are used. The rats are individually placed in observation cages (12×25 cm) and the number of head twitches are counted 30-40 min after quipazine administration. Inhibition of head twitches is expressed in per cent of the number of head twitches in the control group. ED 50 values are calculated by log-probit analysis.
Vetulani, J., B.B. Beduarczyk, K. Reichenberg and A. Rokost: Neuropharmacology 19, 155-158, […].
(§1) Arnt, J., J. Hyttel and J.-J. Larsen: Acta pharmacol. et toxicol. 55, 363-372, 1984.

The target of series [4] is T2, dopamine (DA) D-2 receptors (Rattus norvegicus, UniProt P61169).
T2 construct: DA D-2 receptors in rat striatal membranes; from tissue; host or cells: rat striatal membranes
Description: 3H-spiroperidol binding, dopamine D-2 receptors in rat striatal membranes. The protocol: (§2) 4. ^3 H-spiroperidol bindings
The affinity of compounds to dopamine (DA) D-2 receptors and serotomin2 (5-HT2) receptors was determined by in vitro receptor binding technique.
Arnt, J., J. Hyttel and J.-J. Larsen: Acta pharmacol. et toxicol.

A short description of series [5]: Catalepsy. The format is in vivo, rat.
Series [6] concerns the target T3, serotomin2 (5-HT2) receptors (Rattus norvegicus, UniProt P14842).
T3 construct: 5-HT2 receptors in rat cortical membranes; from tissue; host or cells: rat cortical membranes
Description: 3H-spiroperidol binding, 5-HT2 receptors in rat cortical membranes. As to conditions: in vitro, read-out: 3H-Spiroperidol bindings 5-HT2 receptors IC50. Here is the method:
as §2
The affinity of compounds to dopamine (DA) D-2 receptors and serotomin2 (5-HT2) receptors was determined by in vitro receptor binding technique. Binding of ^3 H-spiroperidol to DA D-2 receptors in rat striatal membranes and to 5-HT2 receptors in rat cortical membranes was determined as described in detail by Arnt et al. (1984).
as §1

Series [7] is described as follows: in vivo. As to conditions: mouse, iv.
The conditions of series [8]: i.v., mice; compared with known neuroleptics.
Where [9] appears, read: i.p. test substance, mice, methylphenidate s.c. 60 mg/kg.
[10] abbreviates: rat striatal membranes, in vitro, read-out: 3H-Spiroperidol bindings DA-2 receptors IC50.
Where [11] appears, read: Rattus norvegicus, sc, 24 h, read-out: Catalep. ED50 (sc) 24 h.
The mark [12] stands for this setting: Rattus norvegicus, sc, read-out: Catalep. ED50 (sc) 1-6 h.
Setting [13] is: ip, read-out: MePh Antg. ED50(ip).
Setting [14] is: Rattus norvegicus, po, 24 h, read-out: Catalep. ED50(po) 24 h.
Where [15] appears, read: Rattus norvegicus, po, read-out: Catalep. ED50(po) 1-6 h.
[16] abbreviates: ip, i.p. test substance, mice, methylphenidate s.c. 60 mg/kg, read-out: MePh Antg. ED50(ip).
The mark [17] stands for this setting: read-out: Catalep. ED50(po) 1-6 h, po, rat, 1-6 h.
Setting [18] is: read-out: Catalep. ED50(po) 24 h, po, rat, 24 h.

T1 sequence (P14842 whole entry): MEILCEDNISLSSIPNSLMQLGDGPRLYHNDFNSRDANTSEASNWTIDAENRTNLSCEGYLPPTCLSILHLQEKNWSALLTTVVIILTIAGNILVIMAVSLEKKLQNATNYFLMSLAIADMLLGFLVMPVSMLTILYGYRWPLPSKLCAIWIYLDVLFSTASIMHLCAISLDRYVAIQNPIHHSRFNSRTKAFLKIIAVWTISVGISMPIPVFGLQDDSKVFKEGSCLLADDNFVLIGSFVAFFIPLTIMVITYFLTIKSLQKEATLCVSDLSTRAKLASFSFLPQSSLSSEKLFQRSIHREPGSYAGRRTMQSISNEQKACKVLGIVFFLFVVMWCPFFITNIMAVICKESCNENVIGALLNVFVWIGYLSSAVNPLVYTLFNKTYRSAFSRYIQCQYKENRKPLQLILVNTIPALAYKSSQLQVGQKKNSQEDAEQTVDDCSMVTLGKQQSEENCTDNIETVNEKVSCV
T3 sequence (P14842 whole entry): as above
T2 sequence (P61169 whole entry): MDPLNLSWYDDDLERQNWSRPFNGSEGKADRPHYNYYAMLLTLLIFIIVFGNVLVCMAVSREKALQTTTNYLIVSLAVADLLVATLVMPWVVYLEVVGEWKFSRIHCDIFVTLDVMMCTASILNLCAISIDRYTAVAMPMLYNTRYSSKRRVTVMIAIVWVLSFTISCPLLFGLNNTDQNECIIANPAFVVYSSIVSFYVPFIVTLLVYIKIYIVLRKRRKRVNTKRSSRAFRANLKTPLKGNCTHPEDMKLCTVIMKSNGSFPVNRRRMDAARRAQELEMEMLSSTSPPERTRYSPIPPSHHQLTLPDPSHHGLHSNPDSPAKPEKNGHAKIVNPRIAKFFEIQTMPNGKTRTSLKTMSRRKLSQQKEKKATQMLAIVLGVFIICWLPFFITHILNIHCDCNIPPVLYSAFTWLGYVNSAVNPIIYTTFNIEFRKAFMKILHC

What is called IC50 is the concentration at which inhibition is half-maximal. Take `CN1CCN(c2cn(-c3ccccc3)c3ccc(Cl)cc23)CC1` [Lu 23-015, 5-Chloro-3-(4-methylpiperazino)-1-phenyl-1H-indole, reference compound]: the “effects in the pharmacological testing” value in series [1] is “without interesting effects”. In addition, the “MePh Antg. ED50(ip)” value in series [2] (setting [9]) is 8.8 µmol/kg. The “Qvipaz. inh. ED50(sc)” value in series [3] stood at 0.062 µmol/kg. Moreover, the results for the IC50 in series [4] (setting [10]) and in series [6] were 12 nM and 3.9 nM, respectively. Besides, the “Catalep. ED50(po) 1-6 h” value in series [5] (po, rat, 1-6 h) stood at 12.0 µmol/kg. Also, the “Catalep. ED50(po) 24 h” value in series [5] (po, rat, 24 h) is greater than 15 µmol/kg.

The ED50 is the dose at which the effect has come halfway, by size or by number of responders. `OCCN1CC=C(c2c[nH]c3ccc(Cl)cc23)CC1` [Lu 23-143, 5-chloro-3-(1-(2-hydroxyethyl)-1,2,3,6-tetrahydropyrid-4-yl)indol, reference compound]: the “effects in the pharmacological testing” value in series [1] was “almost inactive compared with the compounds of Formula I”. The ED50 in series [2] (sc, read-out: MePh Antg. ED50 (sc)) was 72 µmol/kg; in series [5] (setting [11]) it was greater than 18 µmol/kg; in series [5] (setting [12]) it was greater than 18 µmol/kg. Further, the “Qvipaz. inh. ED50(sc)” value in series [3] is 4.5 µmol/kg.

What is called LD50 is the dose expected to kill half of the subjects tested. A high value points to a less toxic substance. `OCCN1CCN([C@@H]2C[C@@H](c3ccc(F)cc3)c3ccc(C(F)(F)F)cc32)CC1` (racemic) [Tefludazine, reference compound]: the “MePh Antg. ED50(ip)” value in series [2] (setting [9]) worked out at 0.06 µmol/kg. Besides, the “Qvipaz. inh. ED50(sc)” value in series [3] stood at 0.06 µmol/kg. Further, the IC50 in series [4] (setting [10]) turned out to be 19 nM; in series [6], 8.6 nM. Also, in series [7], the LD50 fell in the range of 120 to 180 µmol/kg. The “Catalep. ED50(po) 1-6 h” value in series [5] (po, rat, 1-6 h) amounted to 0.61 µmol/kg. Further, the “Catalep. ED50(po) 24 h” value in series [5] (po, rat, 24 h) came to 0.9 µmol/kg.

Consider `CN1CC=C(c2cn(-c3ccc(F)cc3)c3ccc(C(F)(F)F)cc23)CC1.O=C(O)C(=O)O` [Lu 21-120, 1-(4'-Fluorophenyl)-3-(1-methyl-1,2,3,6-tetrahydropyridin-4-yl)-5-trifluoromethyl-1H-indole, oxalate], for which the ED50 in series [2] (setting [13]) worked out at 0.08 µmol/kg; in series [5] (setting [14]), 0.35 µmol/kg; in series [5] (setting [15]), 0.32 µmol/kg. In addition, the “Qvipaz. inh. ED50(sc)” value in series [3] turned out to be 0.03 µmol/kg. Moreover, the IC50 in series [4] worked out at 0.61 nM; in series [6] it was 3.1 nM.

Regarding `Br.CN1CC=C(c2cn(-c3ccc(F)cc3)c3ccc(Cl)cc23)CC1` [Lu 22-117, 5-Chloro-1-(4'-fluorophenyl)-3-(1-methyl-1,2,3,6-tetrahydropyridin-4-yl)-1H-indole, hydrobromide], the values for the ED50 in series [2] (setting [13]), in series [5] (setting [11]) and in series [5] (setting [12]) were 0.06 µmol/kg, greater than 0.37 µmol/kg and 0.09 µmol/kg, respectively. Moreover, the “Qvipaz. inh. ED50(sc)” value in series [3] is 0.052 µmol/kg. The IC50 in series [4] came out at 1.2 nM; in series [6], 0.66 nM.

Consider `Fc1ccc(-n2cc(N3CCNCC3)c3cc(C(F)(F)F)ccc32)cc1` [Lu 21-153, 1-(4'-Fluorophenyl)-3-piperazino-5-trifluoromethyl-1H-indole], for which the ED50 in series [2] (setting [16]) stood at 2 µmol/kg; in series [5] (setting [17]) it was 7.1 µmol/kg; in series [5] (setting [18]), 16 µmol/kg. In series [3], the “Qvipaz. inh. ED50(sc)” value stood at 0.37 µmol/kg. Also, the IC50 amounted to 3.7 nM in series [4] (setting [10]) and 6.7 nM in series [6].

Turning to `CN1CC=C(c2cn(-c3ccc(F)cc3)c3ccc(F)cc23)CC1.Cl` [Lu 21-018, 5-Fluoro-1-(4'-fluorophenyl)-3-(1-methyl-1,2,3,6-tetrahydropyridin-4-yl)-1H-indole, hydrochloride], the ED50 in series [2] (setting [13]) was 0.58 µmol/kg; in series [5] (setting [14]) it was greater than 6.9 µmol/kg; in series [5] (setting [15]), 2 µmol/kg. Besides, the “Qvipaz. inh. ED50(sc)” value in series [3] was found to be 0.15 µmol/kg. Moreover, the IC50 in series [4] (setting [10]) came out at 0.74 nM; in series [6], 3 nM.

With `OCCN1CCN(c2cn(-c3ccc(F)cc3)c3ccc(C(F)(F)F)cc23)CC1` [Lu 21-152, 1-(4'-Flurophenyl)-3-(4-(2-hydroxyethyl)-piperazino)-5-trifluoromethyl-1H-indole], the 50% effective dose (ED50) in series [2] (setting [16]) was found to be 0.11 µmol/kg; in series [5] (setting [17]) it was 0.17 µmol/kg; in series [5] (setting [18]), 0.28 µmol/kg. Moreover, in series [3], the “Qvipaz. inh. ED50(sc)” value is 0.023 µmol/kg. Besides, the figures for the half-maximal inhibitory concentration (IC50) in series [4] (setting [10]) and in series [6] were 2.8 nM and 7.4 nM, respectively. The acute toxicity result in series [8] is listed as “comparatively low acute toxicity”. The compound further showed an LD50 in series [7] of 147 µmol/kg.

Take `CN(C)CCCN1c2ccccc2Sc2ccc(Cl)cc21` [Clorpromazine, reference compound]: the results for the 50% effective dose (ED50) in series [2] (setting [13]) and in series [5] (setting [15]) were 23 µmol/kg and 70 µmol/kg, respectively. The same compound registered an LD50 in series [7] of 120 to 180 µmol/kg.

Take `CN1CC=C(c2cn(-c3ccc(F)cc3)c3ccc([N+](=O)[O-])cc23)CC1` [Lu 22-135, 1-(4'-Fluorophenyl)-5-nitro-3-(1-methyl-1,2,3,6-tetrahydropyridin-4-yl)-1H-indole]: the ED50 in series [2] (setting [13]) is 0.1 µmol/kg; in series [5] (setting [15]), 0.078 µmol/kg; in series [5] (setting [11]), greater than 0.89 µmol/kg. Besides, the “Qvipaz. inh. ED50(sc)” value in series [3] was 0.009 µmol/kg. Moreover, the IC50 was determined as 1.1 nM in series [4] and 1.9 nM in series [6]. In series [8], the acute toxicity result is “comparatively low acute toxicity”. This compound showed an LD50 in series [7] of 276 µmol/kg.
